Activity calls are given as the source filed them.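 How the source made its calls: active means viability below 80%, counted as toxic; inactive means the rest.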
system: HEK-293 viability, CellTiter-Glo ATP luminescence, 3 days; experiment: viability loss in HEK-293 cells – cell-based, powder set 1, cytotoxicity control for GRK2 aptamer-displacement inhibitor project, late-stage follow-up (AID 588512); settings: at 20 µM; active compounds read low

Row | SMILES | viability
1 | Cc1cccc(N2CCN(C(=O)CCS(=O)(=O)c3ccc(Br)cc3)CC2C)c1 (stereo not given) | 113% (inactive)
2 | CCc1ccccc1NC(=O)CCS(=O)(=O)c1ccc(Br)cc1 | 82.6% (inactive)
3 | O=C(CCS(=O)(=O)c1ccc(Br)cc1)NCCc1ccc(Cl)cc1 | 124% (inactive)
4 | Cc1ccccc1NC(=O)CCS(=O)(=O)c1ccc(Br)cc1 | 128% (inactive)
5 | O=C(CCS(=O)(=O)c1ccc(Br)cc1)Nc1cc(F)ccc1F | 110% (inactive)
6 | COc1ccc(CNC(=O)CCS(=O)(=O)c2ccc(Br)cc2)cc1 | 95.2% (inactive)
7 | Cc1cc2ccccc2n1CCNC(=O)c1cccs1 | 109% (inactive)
8 | O=C(O)C1CC(=O)N(c2ccc3c(c2)OCCO3)C1 (stereo not given) | 133% (inactive)
9 | CCOc1ccc(CCNC(=O)CCS(=O)(=O)c2ccc(Br)cc2)cc1OCC | 123% (inactive)
10 | Cc1cc(=O)[nH]c(SCC(=O)NCc2ccco2)n1 | 69.3%

Source: PubChem BioAssay AID588512 (NMMLSC, 2011)
